In brackets after ≈: the same amount, converted by molar mass.
Tests used:
physchem [1] = details: 30 °C, water, thermodynamic from solid
Method: (§1) To measure the solubility of inotodiol esters with respect to water, 5 mg of each sample was suspended in 1 mL of distilled water and treated in an ultrasonic bath for 30 minutes. The mixture was then treated in an ultrasonic bath (Power sonic 410) for 30 minutes. Then, the mixture was incubated at 30° C. for 3 hours. The supernatant obtained after centrifugation (20,000×g, 10 minutes) was filtered through a 0.45 μm membrane filter of [sequence]

physchem [2] = details: distilled water, 30 °C, thermodynamic from solid
Method: as §1

[3] = Solubility of inotodiol in organic solvents (Example 1, HPLC-UV-VIS of supernatant); type: physicochemical; details: 30 °C
Method: To measure the […] solubility of inotodiol, the following was performed.
First, 50 mg of an inotodiol sample was mixed with 1 ml of an organic solvent. Subsequently, the mixture was vortexed and placed in a water bath sonicator for 15 minutes. […]

CC(C)=CC[C@@H](O)[C@@H](C)[C@H]1CC[C@@]2(C)C3=C(CC[C@]12C)[C@@]1(C)CC[C@H](O)C(C)(C)[C@@H]1CC3 [Inotodiol, (3S,5R,10S,13R,14R,17R)-17-[(2S,3R)-3-hydroxy-6-methylhept-5-en-2-yl]-4,4,10,13,14-pentamethyl-2,3,5,6,7,11,12,15,16,17-decahydro-1H-cyclopenta[a]phenanthren-3-ol]
solubility at 3 h (physchem [1]): 31 ± 3.8 mg/mL (≈ 70 mM) | solubility at 3 h (physchem [2]): 0.0005 ± 0.00018 mg/mL (≈ 0.00113 mM) | Inotodiol concentration ([3]; solvent acetonitrile): 0.976 mg/mL | Inotodiol concentration ([3]; solvent dichloromethane): 24.675 mg/mL | Inotodiol concentration ([3]; solvent ethanol): 25.152 mg/mL | Inotodiol concentration ([3]; solvent ethyl acetate): 8.685 mg/mL | Inotodiol concentration ([3]; solvent hexane): 0.094 mg/mL | Inotodiol concentration ([3]; solvent methanol): 7.964 mg/mL | Inotodiol concentration ([3]; solvent t-butanol): 26.493 mg/mL
